Results taken from the supplement of paper PMC11424490.
Where a name gives a salt, the structure may show the parent alone.

Key:
NCI-H2122 = test: combination cScore with adagrasib (Bliss gap around IC50) (%PoC); higher = stronger additive effect
Outline: (§1)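 NCI-H2122, NCI-H358 and SW837 cells were plated in 384-well plates at 500 or 800 cells per well, treated with concentration matrices after 24 h, and grown for 72 h (SW837 for 144 h). Luminescence from CellTiter-Glo was expressed as percent of control relative to vehicle wells and fitted with four-parameter curves. The score is the mean Bliss-independence gap, expected minus measured viability, across a field around both monotherapy IC50 values, or across the top concentrations where no IC50 was reached.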

SW837 = test: as above
Outline: as §1

Row | Compound | combination cScore with adagrasib (NCI-H2122) | combination cScore with adagrasib (SW837)
1 | CN1CCN(c2ccc(-c3cccc(CN4CCOCC4)c3)cc2NC(=O)c2c[nH]c(=O)cc2C(F)(F)F)CC1 [OICR-9429] + C=C(F)C(=O)N1CCN(c2nc(OC[C@@H]3CCCN3C)nc3c2CCN(c2cccc4cccc(Cl)c24)C3)C[C@@H]1CC#N [adagrasib] | -2.61 | 8.92
2 | N[C@H]1CC[C@H](N[C@@H]2C[C@H]2c2ccccc2)CC1 [ORY-1001] + C=C(F)C(=O)N1CCN(c2nc(OC[C@@H]3CCCN3C)nc3c2CCN(c2cccc4cccc(Cl)c24)C3)C[C@@H]1CC#N [adagrasib] | -4.53 | 2.12
3 | O=C(O)C(=O)O.[NH-][C@@H]1CCCC[C@H]1[NH-].[Pt+2] [Oxaliplatin] + C=C(F)C(=O)N1CCN(c2nc(OC[C@@H]3CCCN3C)nc3c2CCN(c2cccc4cccc(Cl)c24)C3)C[C@@H]1CC#N [adagrasib] | 5.21 | -1.13
4 | CC(=O)O[C@H]1C(=O)[C@@]2(C)[C@H]([C@H](OC(=O)c3ccccc3)[C@]3(O)C[C@H](OC(=O)[C@H](O)[C@@H](NC(=O)c4ccccc4)c4ccccc4)C(C)=C1C3(C)C)[C@]1(OC(C)=O)CO[C@@H]1C[C@@H]2O [Paclitaxel] + C=C(F)C(=O)N1CCN(c2nc(OC[C@@H]3CCCN3C)nc3c2CCN(c2cccc4cccc(Cl)c24)C3)C[C@@H]1CC#N [adagrasib] | 0.85 | 2.18
5 | Cc1[nH]c2ccccc2c1CCNCc1ccc(/C=C/C(=O)NO)cc1 [Panobinostat] + C=C(F)C(=O)N1CCN(c2nc(OC[C@@H]3CCCN3C)nc3c2CCN(c2cccc4cccc(Cl)c24)C3)C[C@@H]1CC#N [adagrasib] | 2.38 | 5.72
6 | Cc1ccc(Nc2nccc(N(C)c3ccc4c(C)n(C)nc4c3)n2)cc1S(N)(=O)=O [Pazopanib] + C=C(F)C(=O)N1CCN(c2nc(OC[C@@H]3CCCN3C)nc3c2CCN(c2cccc4cccc(Cl)c24)C3)C[C@@H]1CC#N [adagrasib] | -6.25 | -7.8
7 | Nc1nc2[nH]cc(CCc3ccc(C(=O)N[C@@H](CCC(=O)O)C(=O)O)cc3)c2c(=O)[nH]1 [Pemetrexed] + C=C(F)C(=O)N1CCN(c2nc(OC[C@@H]3CCCN3C)nc3c2CCN(c2cccc4cccc(Cl)c24)C3)C[C@@H]1CC#N [adagrasib] | 2.77 | 5.08
8 | CC(C)(C)c1cc(NC(=O)Nc2ccc(-c3cn4c(n3)sc3cc(OCCN5CCOCC5)ccc34)cc2)no1 [Quizartinib] + C=C(F)C(=O)N1CCN(c2nc(OC[C@@H]3CCCN3C)nc3c2CCN(c2cccc4cccc(Cl)c24)C3)C[C@@H]1CC#N [adagrasib] | -3.38 | 0.28
9 | Cc1ncc(NC(=O)c2cccc(C(F)(F)F)c2)cc1-c1cnc(OC2CCOCC2)c(N2CCOCC2)c1 [RAF-709] + C=C(F)C(=O)N1CCN(c2nc(OC[C@@H]3CCCN3C)nc3c2CCN(c2cccc4cccc(Cl)c24)C3)C[C@@H]1CC#N [adagrasib] | 7.22 | 4.87
10 | CO[C@H]1C[C@@H]2CC[C@@H](C)[C@@](O)(O2)C(=O)C(=O)N2CCCC[C@H]2C(=O)O[C@H]([C@H](C)C[C@@H]2CC[C@@H](O)[C@H](OC)C2)CC(=O)[C@H](C)/C=C(\C)[C@@H](O)[C@@H](OC)C(=O)[C@H](C)C[C@H](C)/C=C/C=C/C=C/1C [Rapamycin] + C=C(F)C(=O)N1CCN(c2nc(OC[C@@H]3CCCN3C)nc3c2CCN(c2cccc4cccc(Cl)c24)C3)C[C@@H]1CC#N [adagrasib] | 4.11 | 6.52
11 | CNC(=O)c1cc(Oc2ccc(NC(=O)Nc3ccc(Cl)c(C(F)(F)F)c3)c(F)c2)ccn1 [Regorafenib] + C=C(F)C(=O)N1CCN(c2nc(OC[C@@H]3CCCN3C)nc3c2CCN(c2cccc4cccc(Cl)c24)C3)C[C@@H]1CC#N [adagrasib] | -3.41 | -1.71
12 | COc1cc(OC)c(/C=C/S(=O)(=O)Cc2ccc(OC)c(NCC(=O)O)c2)c(OC)c1 [Rigosertib] + C=C(F)C(=O)N1CCN(c2nc(OC[C@@H]3CCCN3C)nc3c2CCN(c2cccc4cccc(Cl)c24)C3)C[C@@H]1CC#N [adagrasib] | 1.67 | 7.78
13 | C/C=C1\NC(=O)[C@H]2CSSCC/C=C/[C@H](CC(=O)N[C@H](C(C)C)C(=O)N2)OC(=O)[C@H](C(C)C)NC1=O [Romidepsin] + C=C(F)C(=O)N1CCN(c2nc(OC[C@@H]3CCCN3C)nc3c2CCN(c2cccc4cccc(Cl)c24)C3)C[C@@H]1CC#N [adagrasib] | -1.65 | 6.42
14 | N#CC[C@H](C1CCCC1)n1cc(-c2ncnc3[nH]ccc23)cn1 [Ruxolitinib] + C=C(F)C(=O)N1CCN(c2nc(OC[C@@H]3CCCN3C)nc3c2CCN(c2cccc4cccc(Cl)c24)C3)C[C@@H]1CC#N [adagrasib] | -2.1 | 0.75
15 | CC(C)(C)c1ccc(S(=O)(=O)NCc2ccc(C(=O)Nc3cccnc3)cc2)cc1 [STF-31] + C=C(F)C(=O)N1CCN(c2nc(OC[C@@H]3CCCN3C)nc3c2CCN(c2cccc4cccc(Cl)c24)C3)C[C@@H]1CC#N [adagrasib] | -2.08 | 10.7
16 | CNC(=O)c1cc(Oc2ccc(NC(=O)Nc3ccc(Cl)c(C(F)(F)F)c3)cc2)ccn1 [Sorafenib] + C=C(F)C(=O)N1CCN(c2nc(OC[C@@H]3CCCN3C)nc3c2CCN(c2cccc4cccc(Cl)c24)C3)C[C@@H]1CC#N [adagrasib] | -6.98 | -4.84
17 | CCN(CC)CCNC(=O)c1c(C)[nH]c(/C=C2\C(=O)Nc3ccc(F)cc32)c1C [Sunitinib] + C=C(F)C(=O)N1CCN(c2nc(OC[C@@H]3CCCN3C)nc3c2CCN(c2cccc4cccc(Cl)c24)C3)C[C@@H]1CC#N [adagrasib] | 1.03 | 4.56
18 | Cn1nnc2c(C(N)=O)ncn2c1=O [Temozolomide] + C=C(F)C(=O)N1CCN(c2nc(OC[C@@H]3CCCN3C)nc3c2CCN(c2cccc4cccc(Cl)c24)C3)C[C@@H]1CC#N [adagrasib] | 12.1 | 4.71
19 | C[C@@H]1CCN(C(=O)CC#N)C[C@@H]1N(C)c1ncnc2[nH]ccc12 [Tofacitinib citrate] + C=C(F)C(=O)N1CCN(c2nc(OC[C@@H]3CCCN3C)nc3c2CCN(c2cccc4cccc(Cl)c24)C3)C[C@@H]1CC#N [adagrasib] | -3.58 | 5.3
20 | CC(C)C[C@@H](C(=O)N[C@H](C(=O)OC1CCCC1)c1ccccc1)[C@H](O)C(=O)NO [Tosedostat] + C=C(F)C(=O)N1CCN(c2nc(OC[C@@H]3CCCN3C)nc3c2CCN(c2cccc4cccc(Cl)c24)C3)C[C@@H]1CC#N [adagrasib] | 1.4 | 19.8
